The values that follow are results of earlier work, collected in article PMC4364341, “NBD delivery improves the disease phenotype of the golden retriever model of Duchenne muscular dystrophy” (Skeletal Muscle, 2014).

The subject of this data set is GRMD dogs. To be noted: previous GRMD prednisone trial; cited from earlier work. The text has this: This functional benefit obtained by NBD in GRMD dogs was consistent with that obtained in the mdx murine model of DMD [13].

On to `C[C@]12C=CC(=O)C=C1CC[C@@H]1[C@@H]2C(=O)C[C@@]2(C)[C@H]1CC[C@]2(O)C(=O)CO` [prednisone], for which the “Extension force in treated GRMD dogs” value is listed as “increased extension force”.
